Source: patent US20250034159A1, “INHIBITORS OF EPIDERMAL GROWTH FACTOR RECEPTOR” (ORIC Pharmaceuticals, Inc., priority 2021, published 2025)
Where two headings read alike, the source gives them in different places.

Experiments:
[1] = molecular target: recombinant human EGFR exon 19 deletion/C797S double mutant protein (Homo sapiens (Human), UniProt P00533, C797S/DEL746-750); assay: Biological Activity Assay C: biochemical assay against EGFR exon 19 deletion/C797S protein (EGFR d19/CS)
Experimental: In Row A of a 384-well polypropylene plate, was added 48 μL of DMSO. In wells A1 and A24, were added 12 μL of DMSO. […] To a well in Row A were added 12 μL of each 10 mM test compound stock (100% DMSO). […] The final intermediate dilution plate contained 4×16-point compound serial dilutions in assay buffer. The DMSO concentration was 10%. The intermediate compound dilution plate was transferred to the Bravo and the “5 uL dispense into ARP.pro” protocol was run. To the black low volume assay ready plates, were added 5 μL of 40 uM Phosphosens peptide sensor/4 mM ATP working solution to each well. […] To column 24, was added 10 μL of assay buffer. The final DMSO concentration was 2.5%. […] The plates were sealed with the TopSeal-A Plus plate seals. […] Set for 90 cycles with 120 second interval. […] The slope of each curve was constructed using Dotmatics in each well, and each IC50s was calculated using a 4-parameter fit model.

Ba/F3_EGFR WT cells = assay: Biological Activity Assay D: BaF3 cell proliferation assay, EGFR wild-type (BaF3 WT); type: cell-based; details: Ba/F3 EGFR, read-out: BaF3 WT IC50
Experimental: (§1) One frozen vial of cells should be thawed into one T25 flask in 10 mL media. Keep the flask upright in the incubator.
(§2) Method: One frozen vial of cells was thawed into one T25 flask in 10 mL media and the flask was kept upright in the incubator. Cells were split 1:10 every two to three days when cells reached confluency of around 1×10^6 cells/mL. Bravo protocol files were used with Greiner 384-well plates for all steps of compound preparation, cell plating and compound addition. […] 16 μL of DMSO were added (for compounds starting at 20 μM) or 28 μL DMSO (for compounds starting at 5 μM) to 96-well V-bottom polypropylene plate: wells 1A-1H (8 compounds/plate). […] 20 μL DMSO were added to the remainder of the wells (columns 2-12) in the 96-well V-bottom plate. A Bravo liquid handler was used to make 1:3 serial dilutions from columns 1 to 11 (12 remains as DMSO only) to prepare the DMSO dilution plate. 144 μL media were added to each well of a new 96-well V-bottom polypropylene plate to prepare the intermediate dilution plate. A Bravo or 96-head Integra liquid handler was used to add and mix 6 μL of test compound from the DMSO dilution plate to the intermediate dilution plate. (1:25 dilution). Cells were transferred from a flask into a 50 mL conical, vortex gently and the number of cells were counted, with a target cell number of about 1×10^6 cells per mL. The cells were diluted in culture medium in 50 mL conical or T25 flask, and the cell suspension was added to BRAVO reservoir and then use Bravo protocol to plate the appropriate number of cells shown below in 36 μl of medium per well as follows: Ba/F3-WT-EGFR 2000 cells per well of a 384 well plate; Ba/F3-LR/CS-EGFR 2000 cells per well of a 384 well plate; and Ba/F3-d19/CS-EGFR 1500 cells per well of a 384 well plate. An extra 10 mL of dead volume was utilized in each reservoir.
(§3) Using a Bravo liquid handler, 4 μl of test compound solution was added per well from the intermediate dilution plate to plated cells (1:10 dilution from the intermediate plate, final compound dilution 1:250 and final DMSO concentration per well is 0.4%). Using the 96 BRAVO Head, 25 μl were aspirated from the intermediate dilution plate and 4 μl each were dispensed into 4 wells (square pattern) in the 384-well plate. Any remaining test compound is dispensed into a secondary plate to prevent cross contamination of cells in the intermediate compound plate. After the compounds were added, the plate was shaken at 600 rpm gently for 60 see, and the plates were incubated in a tissue culture incubator, 37° C., 5% CO2, for ˜ 72 hours. After incubation, CTG 2.0 reagent was allowed to equilibrate to room temperature (˜3 hours) and cells to reach room temperature (˜10-15 minutes) and reagent was added to cells (40 μL/well) using a Bravo liquid handler. The plates were shaken to allow proper mixing (˜5 min) and let settle for 10 minutes and were read on Tecan plate reader using the appropriate luminescence method. Data from plate reader was transferred to an excel file and entered directly into Dotmatics using the protocols under EGFR Project/Cell Proliferation/named: “BaF3_EGFRwt_CP”, “BaF3_EGFR_d19/CS_CP”, “BaF3_EGFR_LR/CS_CP”. Curves were fit with a 4-parameter model and IC50s calculated by the Dotmatics software. DMSO wells were averaged to define the high control (100% growth). The average of the highest concentration of the positive control compound (afatinib) was used to define the 0% growth and used to lock the bottom of the curves. The tops of the curves were not fixed.

BaF3_EGFR LR/CS cells = assay: Biological Activity Assay D: BaF3 cell proliferation assay, EGFR L858R/C797S mutant (BaF3 LR/CS); type: cell-based; details: Ba/F3 EGFR, read-out: BaF3 LR/CS IC50
Experimental: as §1, §2, §3

BaF3_EGFR d19/CS cells = assay: Biological Activity Assay D: BaF3 cell proliferation assay, EGFR exon 19 deletion/C797S (BaF3 d19/CS); type: cell-based; details: Ba/F3 EGFR, read-out: BaF3 d19/CS IC50
Experimental: as §1, §2, §3

[2] = Ba/F3_EGFR WT cells, ~72 hours, CellTiter-Glo
[3] = BaF3_EGFR LR/CS cells, ~72 hours, CellTiter-Glo
[4] = BaF3_EGFR d19/CS cells, ~72 hours, CellTiter-Glo

Chain of recombinant human EGFR exon 19 deletion/C797S double mutant protein (P00533 other isoform, or with tags, fused parts or gaps C797S/del 1-668/del 746-750 limits assumed): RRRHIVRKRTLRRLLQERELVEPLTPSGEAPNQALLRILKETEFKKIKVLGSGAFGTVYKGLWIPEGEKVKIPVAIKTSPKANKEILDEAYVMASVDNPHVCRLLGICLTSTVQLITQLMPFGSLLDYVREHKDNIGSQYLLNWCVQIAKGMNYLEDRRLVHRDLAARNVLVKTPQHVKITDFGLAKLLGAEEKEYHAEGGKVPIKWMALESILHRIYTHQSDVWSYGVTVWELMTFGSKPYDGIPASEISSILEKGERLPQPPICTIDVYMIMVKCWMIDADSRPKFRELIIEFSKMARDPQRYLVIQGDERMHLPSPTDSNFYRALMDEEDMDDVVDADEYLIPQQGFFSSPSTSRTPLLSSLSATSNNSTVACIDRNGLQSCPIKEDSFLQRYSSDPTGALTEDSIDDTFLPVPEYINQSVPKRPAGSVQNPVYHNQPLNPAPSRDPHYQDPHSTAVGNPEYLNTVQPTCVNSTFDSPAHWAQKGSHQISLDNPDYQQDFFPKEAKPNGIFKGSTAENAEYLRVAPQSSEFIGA

SMILES | IC50 [1] | IC50 (Ba/F3_EGFR WT cells; [2]) | IC50 (BaF3_EGFR LR/CS cells; [3]) | IC50 (BaF3_EGFR d19/CS cells; [4]) | IC50 (Ba/F3_EGFR WT cells; 72 h) | IC50 (BaF3_EGFR LR/CS cells; 72 h) | IC50 (BaF3_EGFR d19/CS cells; 72 h)
O[C@H]1C[C@H](n2cc(-c3ncnc4oc(-c5ccccc5)cc34)c(-c3ccc(F)cc3)n2)C1 [Example 121, (1r,3r)-3-(3-(4-Fluorophenyl)-4-(6-phenylfuro[2,3-d]pyrimidin-4-yl)-1H-pyrazol-1-yl)cyclobutan-1-ol] | 0.14 nM | 1180 nM | 12.6 nM | 29.8 nM | – | – | –
Fc1ccc(-c2nn(CC3CC(F)(F)C3)cc2-c2ncnc3oc(-c4ccccc4)cc23)cc1 [Example 123, 4-{1-[(3,3-difluorocyclobutyl)methyl]-3-(4-fluorophenyl)-1H-pyrazol-4-yl}-6-phenylfuro[2,3-d]pyrimidine] | 2.89 nM | 3890 nM | 96.1 nM | 260 nM | – | – | –
Fc1ccc(-c2nn(C[C@H]3C[C@H](F)C3)cc2-c2ncnc3oc(-c4ccccc4)cc23)cc1 [Example 124, 4-[1-{[(1r,3r)-3-fluorocyclobutyl]methyl}-3-(4-fluorophenyl)-1H-pyrazol-4-yl]-6-phenylfuro[2,3-d]pyrimidine] | 3.02 nM | 4270 nM | 230 nM | 611 nM | – | – | –
O=S1(=O)CC(n2cc(-c3ncnc4[nH]c(-c5ccccc5)nc34)c(-c3ccc(F)cc3)n2)C1 [Example 127, 3-[3-(4-Fluorophenyl)-4-(8-phenyl-9H-purin-6-yl)-1H-pyrazol-1-yl]-1λ6-thietane-1,1-dione] | 0.09 nM | 3680 nM | 15.8 nM | 24.6 nM | – | – | –
CC(C)(O)Cn1cc(-c2ncnc3[nH]c(-c4ccccc4)nc23)c(-c2ccc(F)cc2)n1 [Example 130, 1-[3-(4-Fluorophenyl)-4-(8-phenyl-9H-purin-6-yl)-1H-pyrazol-1-yl]-2-methylpropan-2-ol] | 0.12 nM | 2340 nM | 10.1 nM | 12 nM | – | – | –
CS(=O)(=O)CCn1cc(-c2ncnc3[nH]c(-c4ccccc4)nc23)c(-c2ccc(F)cc2)n1 [Example 131, 6-{3-(4-fluorophenyl)-1-[2-(methanesulfonyl)ethyl]-1H-pyrazol-4-yl}-8-phenyl-9H-purine] | 1.04 nM | 3000 nM | 81.9 nM | 162 nM | – | – | –
CC(C)(C)OC(=O)N1CC(C#Cc2cc3c(-c4cn(C5CS(=O)(=O)C5)nc4-c4ccc(F)cc4)ncnc3o2)C1 [Example 132, tert-butyl 3-({4-[1-(1,1-dioxo-1λ6-thietan-3-yl)-3-(4-fluorophenyl)-1H-pyrazol-4-yl]furo[2,3-d]pyrimidin-6-yl}ethynyl)azetidine-1-carboxylate] | 1.51 nM | 5490 nM | 1160 nM | 860 nM | – | – | –
O=S1(=O)CC(n2cc(-c3ncnc4oc(C#CC5CNC5)cc34)c(-c3ccc(F)cc3)n2)C1 [Example 133, 3-[4-{6-[(azetidin-3-yl)ethynyl]furo[2,3-d]pyrimidin-4-yl}-3-(4-fluorophenyl)-1H-pyrazol-1-yl]-1λ6-thietane-1,1-dione] | 7.1 nM | 7550 nM | 2190 nM | 1190 nM | – | – | –
CC(=O)NCCn1cc(-c2ncnc3oc(-c4ccccc4)cc23)c(-c2ccc(F)cc2)n1 [Example 134, N-{2-[3-(4-Fluorophenyl)-4-(6-phenylfuro[2,3-d]pyrimidin-4-yl)-1H-pyrazol-1-yl]ethyl}acetamide] | 0.3 nM | – | – | – | 1030 nM | 33.3 nM | 57.1 nM
FCCn1cc(-c2ncnc3oc(-c4ccccc4)cc23)c(-c2ccc(F)cc2)n1 [Example 135, 4-[1-(2-Fluoroethyl)-3-(4-fluorophenyl)-1H-pyrazol-4-yl]-6-phenylfuro[2,3-d]pyrimidine] | 0.33 nM | 1160 nM | 17.1 nM | 31.9 nM | – | – | –
CC(=O)N1CC=C(c2cc3c(-c4cn(CC(C)(C)O)nc4-c4ccc(F)cc4)ncnc3o2)CC1 [Example 138, 1-[4-{4-[3-(4-Fluorophenyl)-1-(2-hydroxy-2-methylpropyl)-1H-pyrazol-4-yl]furo[2,3-d]pyrimidin-6-yl}-3,6-dihydropyridin-1 (2H)-yl]ethan-1-one] | 0.5 nM | 1390 nM | 94.4 nM | 63.7 nM | – | – | –
CC(C)(C)OC(=O)N1C=C(c2cc3c(-c4cn(C5CS(=O)(=O)C5)nc4-c4ccc(F)cc4)ncnc3o2)CCC1 [Example 139, tert-butyl 5-{4-[1-(1,1-dioxo-1λ6-thietan-3-yl)-3-(4-fluorophenyl)-1H-pyrazol-4-yl]furo[2,3-d]pyrimidin-6-yl}-3,4-dihydropyridine-1(2H)-carboxylate] | 8.55 nM | 10300 nM | 574 nM | 551 nM | – | – | –
CC(=O)N1CC(C#Cc2cc3c(-c4cn(C5CS(=O)(=O)C5)nc4-c4ccc(F)cc4)ncnc3o2)C1 [Example 140, 3-[4-{6-[(1-Acetylazetidin-3-yl)ethynyl]furo[2,3-d]pyrimidin-4-yl}-3-(4-fluorophenyl)-1H-pyrazol-1-yl]-16-thietane-1,1-dione] | 3.32 nM | 5680 nM | 1630 nM | 916 nM | – | – | –
CC(=O)NCCCn1cc(-c2ncnc3oc(-c4ccccc4)cc23)c(-c2ccc(F)cc2)n1 [Example 141, N-{3-[3-(4-Fluorophenyl)-4-(6-phenylfuro[2,3-d]pyrimidin-4-yl)-1H-pyrazol-1-yl]propyl}acetamide] | 0.25 nM | – | – | – | 921 nM | 43.6 nM | 66.1 nM
Fc1ccc(-c2nn(C3CCC(F)(F)CC3)cc2-c2ncnc3oc(-c4ccccc4)cc23)cc1 [Example 142, 4-[1-(4,4-difluorocyclohexyl)-3-(4-fluorophenyl)-1H-pyrazol-4-yl]-6-phenylfuro[2,3-d]pyrimidine] | 5.19 nM | 6070 nM | 313 nM | 398 nM | – | – | –
CNC(=O)Cn1cc(-c2ncnc3oc(-c4ccccc4)cc23)c(-c2ccc(F)cc2)n1 [Example 143, 2-[3-(4-Fluorophenyl)-4-(6-phenylfuro[2,3-d]pyrimidin-4-yl)-1H-pyrazol-1-yl]-N-methylacetamide] | 0.38 nM | 663 nM | 59.8 nM | 94.3 nM | – | – | –
CC(C)(O)CCn1cc(-c2ncnc3[nH]c(-c4ccccc4)nc23)c(-c2ccc(F)cc2)n1 [Example 145, 4-[3-(4-fluorophenyl)-4-(8-phenyl-9H-purin-6-yl)-1H-pyrazol-1-yl]-2-methylbutan-2-ol] | 0.55 nM | 3210 nM | 83.6 nM | 114 nM | – | – | –
